From ChEMBL document CHEMBL4825675, “Longipetalol A: A Highly Modified Triterpenoid from Dichapetalum longipetalum” (J Nat Prod, 2021) come the findings set out here.

The assay has as its system RAW264.7. In words: Antiinflammatory activity in mouse RAW264.7 cells assessed as inhibition of LPS-induced NO production incubated for 24 hrs in presence of LPS by Griess reagent-based assay. To be noted: RAW264.7, 24 h. The format is functional, cell-based. Background: The Griess reaction detects nitrite, a stable product of nitric oxide.

What is called IC50 is the midpoint of a concentration-inhibition curve. Regarding `C/C(=C\[C@H]1C[C@@](O)([C@@H]2CC[C@]34C[C@]23C=CC2[C@@]3(C)CC(=O)/C(=C\C(=O)c5ccccc5)C(C)(C)[C@@H]3CC(=O)[C@]24C)C(=O)O1)CO` (some centres undefined), the IC50 worked out at 3.5 µM.
The value for `C/C(=C\[C@H]1C[C@@](O)([C@@H]2CC[C@]34C[C@]23C=CC2[C@]3(C)C(CC(=O)[C@]24C)C(C)(C)[C@@]2(CC(=O)c4ccccc4)O[C@@H]3OC2=O)C(=O)O1)CO` (some centres undefined) was 11.4 µM.
Turning to `C/C(=C\[C@H]1C[C@@](O)([C@@H]2CC[C@]34C[C@]23C=CC2[C@@]4(C)[C@H](O)C[C@H]3C(C)(C)/C(=C/C(=O)c4ccccc4)C(=O)C[C@]23C)C(=O)O1)CO` (some centres undefined), the IC50 is 1.6 µM.
Take `C[C@@H]1C[C@H]2[C@@H]3CCC4=CC(=O)C=C[C@]4(C)[C@@]3(F)[C@@H](O)C[C@]2(C)[C@@]1(O)C(=O)CO` [DEXAMETHASONE]: the IC50 stood at 6.9 µM.
